Test results: US7947688B2, “N-[3-(3-substituted-pyrazolo[1,5-a]pyrimidin-7-yl)phenyl]-sulfonamides, and compositions, and methods related thereto” (Ferrer Internacional, S.A., priority 2003, dated 2011)

Assays:
male CD1 mice = assay: Predictive sedation-hypnosis test in mice (motor activity, crossings); format: in vivo; conditions: single equimolecular intraperitoneal dose, crossings over 30 min after dosing (first 5 min discarded) versus control
Method: • In vivo determination of predictive sedative-hypnotic action.
The in vivo effects of these compounds were assessed by a predictive sedation-hypnosis test in mice (D. J. Sanger et al., Eur. J. Pharmacol., 313, 35-42, 1996; and G. Griebel et al., Psychopharmacology, 146, 205-213, 1999). Groups of 5-8 male CD1 mice, weighing 22-26 g at the time of test, were used. The test compounds were administered in single equimolecular intraperitoneal doses, suspended in 0.25% agar with one drop of Tween in a volume of 10 ml/kg. Control animals received the vehicle alone. Using an Actisystem DAS16 (Panlab, S. L., Spain) the crossings (number of counts) were recorded for each mouse at 5-min intervals during a period of 30 minutes after dosing. The inhibition percentage of crossings of treated animals versus control animals (the first 5 min were discarded) was calculated.

α2-GABAA receptor = α2-GABAA receptor (Rattus norvegicus, UniProt P18508+P23576); assay: Ligand-binding assay, radiolabeled flumazenil competition, rat spinal cord membranes; conditions: for inhibition at 10 µM: read-out: % Inhibition (10^−5 M), affinity for α2-GABAA receptor; for inhibition at 0.1 µM: read-out: % Inhibition (10^−7 M), affinity for α2-GABAA receptor
Method: Determination of the affinity of test compounds for α1- and α2-GABAA receptor.
Male Sprague-Dawley rats weighing 200-250 g at the time of experiment were used. After decapitation of the animal, the cerebellum (tissue that mostly contains α1-GABAA receptor) and spinal cord (tissue that mostly contains α2-GABAA receptor) were removed. The membranes were prepared according to the method by J. Lameh et al. (Prog. Neuro-Psychopharmacol. Biol. Psychiatry, 24, 979-991, 2000). Once the tissues weighed, they were suspended in 50 mM Tris.HCl (pH 7.7), 1:40 (v/v), homogenized and then centrifuged at 20000 g for 10 min at 7° C. The resulting pellet was resuspended under the same conditions and centrifuged again. The pellet was finally resuspended on a minimum volume and kept at −80° C. overnight. On the next day, the process was repeated until the final pellet was resuspended at a ratio of 1:10 (v/v).
Affinity was determined by competitive tests using radiolabeled flumazenil as ligand. The tests were performed according to the methods described by S. Arbilla et al. (Eur. J. Pharmacol., 130, 257-263, 1986); and Y. Wu et al. (Eur. J. Pharmacol., 278, 125-132, 1995). The membranes containing the study receptors, flumazenil (radiolabeling at a final concentration of 1 nM) and ascending concentrations of test compounds (in a total volume of 500 μl in […] [ph 7.4] Tris.HCl buffer) were incubated. Simultaneously, the membranes were only incubated with the radiolabeled flumazenil (total binding, 100%) and in the presence of an elevated concentration of unradiolabeled flumazenil (non-specific binding, % estimation of radiolabeled ligand). The reactions started on adding the radiolabeled ligand followed by incubation for 60 minutes at 0° C. At the end of the incubation period, the tubes were filtered using a Brandel Mod. M-48R harvester and then washed three times with cold test buffer. The harvester was fitted with a GF/B filter that retained the membranes containing the receptors and the radiolabeled ligand which had been bound to the receptors. Then the filters were removed and left till dry. Once dried, the filters were cut, placed in vials with scintillation liquid and left under stirring overnight. The next day the filters were counted using a Packard Mod. Tricarb scintillation counter.
X: amount of bound ligand for every concentration of compound.
T: total binding, maximum amount bound to the radiolabeled ligand.
N: non-specific binding, amount of radiolabeled ligand bound in a non-specific way irrespective of the receptor used.
Every concentrations of compound were tested in duplicate and their mean values were used to determine the experimental values of % specific binding versus the concentration of compound. […] Inhibition constants (Ki) were calculated from the IC50 values according to Cheng-Prusoff's formula (Y. Cheng y W. H. Prusoff, Biochem. Pharmacol., 22(23), 3099-3108, 1973).

Row | Compound | % Motor Activity Inhibition (male CD1 mice) [%] | melting point [°C] | inhibition at 10 µM (α2-GABAA receptor) [%] | inhibition at 0.1 µM (α2-GABAA receptor) [%]
1 | CN(c1cccc(-c2ccnc3c(C#N)cnn23)c1)S(C)(=O)=O [Example 2, N-[3-(3-cyano-pyrazolo[1,5-a]pyrimidin-7-yl)-phenyl]-N-methyl-methanesulfonamide] | 71.39 | 193 to 195 |  | 
2 | CN(c1cccc(-c2ccnc3c(C(=O)c4cccs4)cnn23)c1)S(=O)(=O)c1ccccc1C#N [Example 82, N-methyl-N-{3-[3-(thiophene-2-carbonyl)-pyrazolo[1,5-a]pyrimidin-7-yl]-phenyl}-2-cyanobenzene-sulfonamide] | 39.87 |  | 31.8 | 0
3 | CCN(c1cccc(-c2ccnc3c(C(=O)c4ccc(F)cc4)cnn23)c1)S(C)(=O)=O [Example 52, N-ethyl-N-{3-[3-(fluorobenzene-4-carbonyl)-pyrazolo[1,5-a]pyrimidin-7-yl]-phenyl}-methanesulfonamide] | 92.83 |  | 61.2 | 0
4 | CN(c1cccc(-c2ccnc3c(C(=O)c4cccs4)cnn23)c1)S(=O)(=O)c1ccc(C#N)cc1 [Example 84, N-methyl-N-{3-[3-(thiophene-2-carbonyl)-pyrazolo[1,5-a]pyrimidin-7-yl]-phenyl}-4-cyanobenzene-sulfonamide] | 68.98 |  | 89.5 | 0
5 | C#CCN(c1cccc(-c2ccnc3c(C(=O)c4cccs4)cnn23)c1)S(=O)(=O)C(C)C [Example 19, N-2-propynyl-N-{3-[3-(thiophene-2-carbonyl)-pyrazolo[1,5-a]pyrimidin-7-yl]-phenyl}-2-propanesulfonamide] | 89.88 |  | 94.4 | 45.2
6 | CN(c1cccc(-c2ccnc3c(C(=O)c4cccs4)cnn23)c1)S(=O)(=O)c1cccs1 [Example 87, N-methyl-N-{3-[3-(thiophene-2-carbonyl)-pyrazolo[1,5-a]pyrimidin-7-yl]-phenyl}-2-thiophene-sulfonamide] | 74.88 |  | 97.6 | 65.1
7 | CN(c1cccc(-c2ccnc3c(C(=O)c4ccc(F)cc4)cnn23)c1)S(C)(=O)=O [Example 51, N-methyl-N-{3-[3-(fluorobenzene-4-carbonyl)-pyrazolo[1,5-a]pyrimidin-7-yl]-phenyl}-methanesulfonamide] | 90.04 |  | 94.7 | 16.8
8 | CCN(c1cccc(-c2ccnc3c(C#N)cnn23)c1)S(=O)(=O)CC [Example 29, N-[3-(3-cyano-pyrazolo[1,5-a]pyrimidin-7-yl)-phenyl]-N-ethyl-ethanesulfonamide] | 93.73 |  | 92.7 | 13.4
9 | C#CCN(c1cccc(-c2ccnc3c(C#N)cnn23)c1)S(C)(=O)=O [Example 27, N-[3-(3-cyano-pyrazolo[1,5-a]pyrimidin-7-yl)-phenyl]-N-2-propynyl-methanesulfonamide] | 93.12 |  | 85.2 | 2.9
10 | CCCN(c1cccc(-c2ccnc3c(C(=O)c4cccs4)cnn23)c1)S(=O)(=O)C(C)C [Example 25, N-propyl-N-{3-[3-(thiophene-2-carbonyl)-pyrazolo[1,5-a]pyrimidin-7-yl]-phenyl}-2-propane-sulfonamide] | 92.79 |  | 78.9 | 9.1
11 | CCN(c1cccc(-c2ccnc3c(C(=O)c4ccccc4)cnn23)c1)S(=O)(=O)CC [Example 72, N-ethyl-N-{3-[3-(benzoyl)-pyrazolo[1,5-a]pyrimidin-7-yl]-phenyl}-ethanesulfonamide] | 93.78 |  | 98.6 | 44.9
12 | CN(c1cccc(-c2ccnc3c(C(=O)c4cccs4)cnn23)c1)S(=O)(=O)C1CC1 [Example 92, N-methyl-N-{3-[3-(thiophene-2-carbonyl)-pyrazolo[1,5-a]pyrimidin-7-yl]-phenyl}-cyclopropyl-sulfonamide] | 74.36 |  | 95.7 | 36.5
13 | CN(c1cccc(-c2ccnc3c(C(=O)c4cccs4)cnn23)c1)S(=O)(=O)c1ccc(Cl)cc1 [Example 79, N-methyl-N-{3-[3-(thiophene-2-carbonyl)-pyrazolo[1,5-a]pyrimidin-7-yl]-phenyl}-4-chlorobenzenesulfonamide] | 51.50 |  | 52.9 | 0
14 | CCN(c1cccc(-c2ccnc3c(C(=O)c4cccs4)cnn23)c1)S(=O)(=O)C(C)C [Example 24, N-ethyl-N-{3-[3-(thiophene-2-carbonyl)-pyrazolo[1,5-a]pyrimidin-7-yl]-phenyl}-2-propane-sulfonamide] | 94.01 |  | 83 | 10.4
15 | CCN(c1cccc(-c2ccnc3c(C(=O)c4ccc(C)cc4)cnn23)c1)S(C)(=O)=O [Example 64, N-ethyl-N-{3-[3-(4-methylbenzoyl)-pyrazolo[1,5-a]pyrimidin-7-yl]-phenyl}-methanesulfonamide] | 90.32 |  | 61.5 | 20.9
16 | O=C(c1cccs1)c1cnn2c(-c3cccc(N4CCCS4(=O)=O)c3)ccnc12 [Example 22, 7-(3-(2-isothiazolidinyl-1,1-dioxide)-phenyl)-3-(thiophene-2-carbonyl)-pyrazolo[1,5-a]pyrimidine] | 91.39 |  | 98.2 | 24.2
17 | C#CCN(c1cccc(-c2ccnc3c(C#N)cnn23)c1)S(=O)(=O)CC [Example 38, N-[3-(3-cyano-pyrazolo[1,5-a]pyrimidin-7-yl)-phenyl]-N-2-propynyl-ethanesulfonamide] | 94.85 |  | 77.6 | 17.4
18 | CN(c1cccc(-c2ccnc3c(C(=O)c4cccs4)cnn23)c1)S(=O)(=O)c1cccc(Cl)c1 [Example 78, N-methyl-N-{3-[3-(thiophene-2-carbonyl)-pyrazolo[1,5-a]pyrimidin-7-yl]-phenyl}-3-chlorobenzenesulfonamide] | 36.12 |  | 36.2 | 0
19 | CN(c1cccc(-c2ccnc3c(C(=O)c4cccs4)cnn23)c1)S(=O)(=O)c1ccccc1Cl [Example 77, N-methyl-N-{3-[3-(thiophene-2-carbonyl)-pyrazolo[1,5-a]pyrimidin-7-yl]-phenyl}-2-chlorobenzene-sulfonamide] | 70.12 |  | 88.5 | 13.8
20 | CCN(c1cccc(-c2ccnc3c(C(=O)c4ccncc4)cnn23)c1)S(C)(=O)=O [Example 46, N-ethyl-N-{3-[3-(pyridin-4-carbonyl)-pyrazolo[1,5-a]pyrimidin-7-yl]-phenyl}-methanesulfonamide] | 93.98 |  | 97.6 | 11.9
21 | Cc1nc(C)c(S(=O)(=O)N(C)c2cccc(-c3ccnc4c(C(=O)c5cccs5)cnn34)c2)s1 [Example 91] | 72.85 |  | 84.1 | 4.8
22 | CCN(c1cccc(-c2ccnc3c(C(=O)c4cccs4)cnn23)c1)S(=O)(=O)CC [Example 18, N-ethyl-N-{3-[3-(thiophene-2-carbonyl)-pyrazolo[1,5-a]pyrimidin-7-yl]-phenyl}-ethanesulfonamide] | 93.39 |  | 93.7 | 20.7
